Measured values: patent US20050153870A1, “Medicinal composition for diagnosis, prevention, or therapy of multiple risk factor syndrome” (priority 2002, published 2005)
Marks after values point to notes of the source that are not given here.

Columns and labels:
Db/db mouse, ob/ob mouse = experiment: Improvement of polydipsia and polyurea; assay type: in vivo; details: in feed, hereditary diabetic obese mouse
C57BL/Ksj-db/db mice = experiment: AS-6 in feed to db/db mice (Example 4); assay type: in vivo, mouse; details: 0.1% in feed, 1 week
Protocol: C57BL/Ksj-db/db mice, which were model animals of multiple risk factor syndrome, were raised for a week with powered feed containing an ascochlorin derivative, 4-O-carboxymethylascochlorin (AS-6), in a content of 0.1%. Thereafter, the weight, blood sugar, blood insulin, and blood neutral fat were measured.

Zucker rats = experiment: Blood pressure of Zucker rat (Example 8); assay type: in vivo; details: for blood pressure, change vs Zucker control group / blood pressure: 0.1% in feed; for blood pressure: AS-6 group at 0th week 144 ± 6
Protocol: Zucker rats were raised for 4 weeks with feed in which 4-0-carboxylmethyl ascochlorin (AS-6) was mixed in a content of 0.1%. At the 0th, 2nd and 4th week of initiation of feeding, blood pressure was measured (6 rats/group).

## CC(C=CC1(C)C(C)CCC(=O)C1C)=CCc1c(O)c(C=O)c(C)c(Cl)c1OCC(=O)O (stereo not drawn) [AS-6, 4-O-carboxymethylascochlorin]
Db/db mouse, ob/ob mouse
  amount of drinking water: obese mouse, the amount of drinking water decreases in a dose-dependent manner,
  amount of sugar excreted in the urine: excreted in the urine significantly decreases.
C57BL/Ksj-db/db mice
  Blood sugar, change vs db/db control group: −30.0%**
  Body weight, change vs db/db control group: ns
  Cholesterol, change vs db/db control group: ns
  Free fatty acid, change vs db/db control group: −21.1%**
  Insulin, change vs db/db control group: ns
  Neutral fat, change vs db/db control group: −38.3%**
C57BL/Ksj-db/db mice; db/db control 1.164 ± 0.03
  Free fatty acid: 0.918 ± 0.1 mEq/L
C57BL/Ksj-db/db mice; db/db control 31.0 ± 3.6
  Insulin: 34.6 ± 3.5 μU/mL
C57BL/Ksj-db/db mice; db/db control 52.9 ± 0.8
  Body weight: 56.3 ± 1.2 g
C57BL/Ksj-db/db mice; db/db control 109.9 ± 3.3
  Cholesterol: 114.4 ± 4.3 mg/dL
C57BL/Ksj-db/db mice; db/db control 378.5 ± 19.3
  Neutral fat: 223.5 ± 17.7 mg/dL
C57BL/Ksj-db/db mice; db/db control 637.3 ± 28.9
  blood sugar: 445.8 ± 32.5 mg/dL
C57BL/Ksj-db/db mice; db/db mice
  blood sugar, blood free fatty acid, and blood neutral fat: significantly reduced
Zucker rats; 2nd week
  blood pressure, change vs Zucker control group: −13.7%(**)
Zucker rats; 2nd week, Zucker control 153 ± 6
  blood pressure: 132 ± 5
Zucker rats; 4th week
  blood pressure, change vs Zucker control group: −19.9%(**)
Zucker rats; 4th week, Zucker control 156 ± 7
  blood pressure: 125 ± 6
Zucker rats; 2nd week after the initiation of feeding
  decrease in blood pressure in comparison with the Zucker control group: 13.7%
Zucker rats; 4th week after the initiation of feeding
  decrease in blood pressure in comparison with the Zucker control group: 19.9%
